Patent US12616687B2, “Treatment of viral infection, disease or disorder using a selective sir agonist” (Prilenia Neurotherapeutics Ltd., priority 2020, dated 2026)
pKi: −log10 of the molar value. Several values for one entry are separate records, joined by “and”; a condition that tells them apart may be missing. Equal entries are not always repeated. Entries after “also recorded” stand apart in the source; their conditions may differ. Where two headings read alike, the source gives them in different places.

Tests used:
[1] = at the concentration showing anti-viral activity; cited from earlier work
[2] = tested on: eIF2α-phosphorylation; assay: eIF2α-phosphorylation, ER stress induced by thapsigargin; type: cell-based; conditions: 2 μg/ml thapsigargin
Procedure: HEK293 cells transfected with Htt20Q-mCherry (wt HTT) were treated with 2 μg/ml thapsigargin to induce ER stress.

[3] = tested on: Striatal WT and YAC128 (HD) neurons; conditions: 24 h; for mitochondrial membrane potential (MMP) in HD (YAC128) neurons: 0.1 and 1 μM
Description: The role of S1R in regulating mitochondrial membrane potential (MMP) was studied in striatal neurons from wild-type (WT) control and YAC128 HD mice.

[4] = target: T1, S1R (Homo sapiens, UniProt Q99720)
[5] = tested on: interferon-stimulated genes (ISGs)
[6] = tested on: YAC128 HD striatal neurons; assay: mitochondrial ROS (H2O2, MitoPY1) in YAC128 HD striatal neurons; type: cell-based, mouse; conditions: Ant A 2 μM
Procedure: YAC128 is a mouse model of Huntington's Disease (HD), Striatal neurons from wt or YAC128 were treated or not with 1 μM pridopidine and incubated with MitoPY1 fluorescence probe. The mitochondrial respiration inhibitor Antimycin A (Ant A, 2 μM) was used to induce release of Mitochondrial H2O2 and oxidative stress. Mitochondrial H2O2 was recorded in spinning disk confocal before and after administration of Ant A (n=4, considering ˜20 cells/condition).
Striatal neurons from YAC128 HD mice were treated with 1 μM pridopidine prior to induction of ROS production by the mitochondrial respiration inhibitor antimycin A (Ant A).

[7] = tested on: CHOP
Procedure: (§1) Cells expressing myc-Htt96Q (mutant Htt) or myc-Htt20Q (wt Htt) were treated with pridopidine 3 uM. Immunoblots were reacted with anti-ATF4 (FIG. 7A), anti-CHOP (FIG. 7B) and anti-GADD34 (FIG. 7C), quantified and normalized with anti-actin or anti-tubulin as loading controls.

[8] = tested on: ATF4
Procedure: as §1

[9] = tested on: GADD34
Procedure: as §1

[10] = tested on: XBP1s; conditions: myc-Htt96Q cells, 3 μM (p<0.01)
[11] = tested on: ATF6; conditions: myc-Htt96Q cells
Procedure: Cells expressing myc-Htt96Q (mutant Htt) were treated with pridopidine 0.03 and 3 μM. Immunoblots were reacted with anti-ATF6 quantified and normalized with anti-tubulin as loading controls.

[12] = tested on: lymphoblasts from HD patients; assay: mitochondrial membrane potential (TMRE) in control and S1R-KD HD lymphoblasts; type: cell-based, human
Procedure: Cells were treated with pridopidine 5 μM, then challenged with 0.1 mM H2O2.

[13] = tested on: SARS-CoV-2; conditions: viral titer assay; cited from earlier work
[14] = target: S2R (Homo sapiens, UniProt Q5BJF2); conditions: cited from earlier work
[15] = target: T1, S1R; conditions: cited from earlier work
[16] = HEK293, Htt96Q-induced ER stress
[17] = pridopidine 5 μM, 24 h, 0.1 mM H2O2

T1 sequence (Q99720 whole entry): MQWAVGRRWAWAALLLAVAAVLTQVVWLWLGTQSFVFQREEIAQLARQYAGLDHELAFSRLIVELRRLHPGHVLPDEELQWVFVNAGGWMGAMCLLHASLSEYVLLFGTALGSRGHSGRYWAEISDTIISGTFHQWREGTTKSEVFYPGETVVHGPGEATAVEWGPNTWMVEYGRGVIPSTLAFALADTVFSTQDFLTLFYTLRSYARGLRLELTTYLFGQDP
Sequence of S2R (Q5BJF2 whole entry): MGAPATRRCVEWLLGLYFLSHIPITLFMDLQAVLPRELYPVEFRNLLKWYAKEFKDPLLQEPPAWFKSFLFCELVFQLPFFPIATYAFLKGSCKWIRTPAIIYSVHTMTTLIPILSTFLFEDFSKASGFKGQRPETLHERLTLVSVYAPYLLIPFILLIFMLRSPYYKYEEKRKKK

CN1CCC[C@@H]1CCO[C@](C)(c1ccccc1)c1ccc(Cl)cc1 [Clemastine]
reduction in cell viability / cell death [1]: ~40%

C/C=C(/C)C(=O)O[C@H]1C(C)=C2[C@H]([C@@H]1OC(=O)CCCCCCC)[C@@](C)(OC(C)=O)C[C@H](OC(=O)CCC)[C@@]1(O)[C@H]2OC(=O)[C@@]1(C)O [thapsigargin, reference compound]
increase in phosphorylated eIF2α (eIF2α-p) ([2]; HEK293, myc-Htt20Q): 70%

CCCN1CCC(c2cccc(S(C)(=O)=O)c2)CC1 [pridopidine, 4-[3-(methylsulfonyl)phenyl]-1-propyl-piperidine]
mitochondrial membrane potential (MMP) in WT neurons ([3]; 0.1 μM): trend towards increasing MMP | mitochondrial membrane potential (MMP) in WT neurons ([3]; 1 μM): significant increase | mitochondrial membrane potential (MMP) in HD (YAC128) neurons [3]: significant increase | mitochondrial membrane potential (MMP) in HD (YAC128) neurons ([3]; listed as Pridopidine): significantly restores the impaired MMP | mitochondrial membrane potential (MMP) in wt neurons ([3]; concentration not stated (FIG. 11 legend)): enhances MMP | fold higher affinity for the S1R vs the S2R [4]: 95 fold | reduction of expression of ISGs (IFIT1, EIF2AK2, IRF7 indexed together) [5]: 30-50% | mitochondrial ROS (H2O2) production after Ant A ([6]; YAC128 striatal neurons, pridopidine 1 μM): robust and significant reduction of ROS production by mitochondria back to normal levels; also recorded: inhibits H2O2 release and oxidative stress | CHOP protein level after treatment [7, 16]: normal wt levels | reduction of CHOP levels ([7]; myc-Htt96Q cells, 3 μM): ~2 fold | ATF4 protein level after treatment [8, 16]: normal wt levels | reduction of ATF4 levels ([8]; myc-Htt96Q cells, 3 μM (p<0.05)): ~4.5 fold | GADD-34 protein level after treatment [9, 16]: normal wt levels | reduction of GADD-34 levels ([9]; myc-Htt96Q cells, 3 μM (p<0.01)): ~2.5 fold | reduction in XBP1s mRNA levels [10]: 25% | reduction of ATF6 ([11]; 0.03 μM): ~10% | reduction of ATF6 ([11]; 3 μM): 35% and ~30% | eIF2α-p (ratio of eIF2α-P/eIF2α) ([2]; HEK293, wt HTT, pridopidine 3 μM, 8 hours): caused a reduction; also recorded: reduces p-eIF2α levels | MMP after H2O2 challenge in S1R KD cells [12, 17]: abolished and not | MMP after H2O2 challenge in S1R+/+ cells [12, 17]: completely restored

O=C(CCCN1CCC(O)(c2ccc(Cl)cc2)CC1)c1ccc(F)cc1 [Haloperidol]
reduction in cell viability / cell death [1]: ~30%

OO [Compound H2O2, H2O2, reference compound]
reduction of MMP in S1R+/+ cells ([12]; 0.1 mM H2O2, HD lymphoblasts): 25% | reduction of MMP in S1R KD cells ([12]; 0.1 mM H2O2, HD lymphoblasts, S1R knocked down ~83%): 75%

CCCCCC[C@H]1C(=O)O[C@H](C)[C@H](NC(=O)c2cccc(NC=O)c2O)C(=O)O[C@@H](C)[C@@H]1OC(=O)CC(C)C [Ant A, Antimycin A, reference compound]
increase of mitochondrial H2O2 / ROS production ([6]; untreated YAC128 neurons): ~2 fold

CCN(CCO)CCCC(C)Nc1ccnc2cc(Cl)ccc12 (stereo not drawn) [hydroxychloroquine]
concentration at which anti-viral activity was demonstrated [13]: ~2 µM | pKi [14]: 6.10 | pKi [15]: 6.70 | reduction in cell viability / cell death [1]: ~30%
